Test results published in patent US4087461A, “Anti-androgenic steroids” (The Johns Hopkins University, priority 1977, dated 1978).

Tests used:
[1] = tested on: immature uterus; assay: study of estrogenic activity (uterine weight of immature mice); settings: same dosage schedule as estryne
Protocol: The animals were housed in a temperature controlled room under a constant lighting schedule and maintained on a diet of Charles River Rat Formula and water ad libitum. The diet of the hypophy-sectomized animals was supplemented with organges.
On the fourth day the uteri were removed and weighed.
Thus, immature female mice received estryne at doses up to a maximum of 100 μg total dose over three days, and the wet weight of the uteri were determined.

[2] = target: Δ^5 -3-ketosteroid isomerase (Comamonas testosteroni, UniProt P00947); assay: inhibition of isomerase by allenic ketones, pseudo first order conditions; assay type: biochemical, Pseudomonas testosteroni; settings: for half life for loss of enzyme activity / isomerisation of the allenic ketone under assay conditions: allenic ketone 200 μM, 1 mM phosphate buffer, pH = 7; for isomerisation of the allenic ketone under assay conditions: isomerase
Description: As noted above, the acetylenic compounds of the invention, e.g. estryne and pregnyne, are converted into the corresponding conjugated allenic ketones which then react irreversibly with the enzyme. These allenic ketones are also novel and constitute an important embodiment of the invention. The allenic ketones derived from estryne are 6β(H)-5,10-secoestra-4,5-diene-3,10,17-trione and 6α(H)-5,10-secoestra-4,5-diene-3,10,17-trione. These allenic ketones have been tested as inhibitors of isomerase and have been found effective in this regard.

[3] = tested on: ventral prostate and dorsal lateral prostate; assay: effects of 6β(H)-allenic ketone on intact male Sprague-Dawley rats: body and prostate weights; assay type: in vivo; settings: 0.6mg in propylene glycol (0.2ml) daily for 7 days, i.p.
Protocol: Effects of 6β(H)-5,10-Seco-19-norestra-4,5-diene-3,10,17-trione on intact male Sprague-Dawley rats
The compound (0.6mg) dissolved in propylene glycol (0.2ml) was administered daily for 7 days by the intraperitoneal route. The experimental group and control group each comprised 5 animals; and weghts of animals as well the wet tissue weights of ventral prostate and dorsal lateral prostate are averaged for each group.

[4] = tested on: endogenous androgen biosynthesis; assay: study in intact male rats: weights of sex accessory tissue and other organs; assay type: in vivo, male Sprague-Dawley rats
Protocol: Studies with intact male Sprague-Dawley rats (300g body weight) are illustrated for compounds (1) and (2).
Similarly, compound (2), […] rats at a dosage of 20mg per kilo for 7 days produced 20% reduction in weight of the ventral prostate and 28% reduction of the dorsal lateral prostate.
The following data illustrates the inhibiting effect of estryne and pregnyne on Δ^5 -3-ketosteroid isomerase (EC 5.3.3.1) as evidenced by a depression of the wet weight of the sex accessory tissue in the mature male rat treated with the estryne and pregnyne.
A. Male rats were used to assess the effect of estryne on endogenous androgen biosynthesis at varying doses (1-20 mg/kg body weight). […] On the eighth day the animals were sacrificed and the ventral prostate, dorsal lateral prostate, seminal vesicles, testes, kidneys, and adrenals were removed and weighed. Samples of each tissue were preserved in 10% buffered formalin for histological examination.
B. Male rats were treated with 19-norpregnyne by a regimen exactly as described for the estryne.

[5] = listed as 6β(H)-5,10-secoestra-4,5-diene-2,10,17-trione

Chain of Δ^5 -3-ketosteroid isomerase (P00947 whole entry, stated change not applied): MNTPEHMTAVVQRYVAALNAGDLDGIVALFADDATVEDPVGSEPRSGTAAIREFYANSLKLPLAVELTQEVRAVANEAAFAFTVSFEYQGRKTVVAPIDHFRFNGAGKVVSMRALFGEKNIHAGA

`C[C@]12CC[C@@H]3c4ccc(O)cc4CC[C@H]3[C@@H]1CC[C@@H]2O` [17β-estradiol] was tested, and the “dose giving maximum stimulation (uterine weight)” value [1] was “about 8 μg” and the “lowest dose giving a positive response (uterine weight)” value ([1]; "as low as") was 0.67 µg.
With `C[C@]12CC[C@@H]3C(=O)CCC(=O)C=C=CC[C@H]3[C@@H]1CCC2=O` [6α(H)-5,10-secoestra-4,5-diene-3,10,17-trione] the “half life for loss of enzyme activity” value [2] was 11 min and the “isomerisation of the allenic ketone under assay conditions” value [2] was “partially converted to the β-isomer”.
`C[C@]12CC[C@@H]3C(=O)CCC(=O)C=C=CC[C@H]3[C@@H]1CCC2=O` [6β(H)-5,10-secoestra-4,5-diene-3,10,17-trione] was tested, and the “Wt. of Dorsal Lateral Prostate” value ([3]; control 299 mg) was 235 mg, the “Wt. of Ventral Prostate” value ([3]; control 574 mg) was 488 mg and the “Wt. of Animals” value ([3]; control 388 g) was 382 g. For the same molecule, the “half life for loss of enzyme activity” value [2, 5] was 9 min, the inhibition of isomerase ([2]; in words) was “effective” and the “isomerisation of the allenic ketone under assay conditions” value [2, 5] was “partially converted to the 6α isomer”.
With `C[C@]12CC[C@@H]3C(=O)CCC(=O)CC#CC[C@H]3[C@@H]1CCC2=O` [Compound 5, 5,10-secoestr-5-yne-3,10,17-trione] the “reduction in weight of the ventral prostate” value ([4]; 13mg per kilo per day, s.c. in sesame oil, 7 days) was 30%, the “Average Weight of Ventral Prostate” value ([4]; 13mg/Kg (so in the source) in propylene glycol (0.2ml) per day for 7 days, i.p., control 421 mg) was 302 mg and the “Average Weight of Ventral Prostate” value ([4]; 13mg/Kg in sesame oil (0.2ml) per day for 7 days, s.c., control 238 mg) was 167 mg.
